From US20110077270A1, “Compositions and Methods for Treating Ocular Inflammation with Lower Risk of Increased Intraocular Pressure” (priority 2009, published 2011)
Where “and” joins values, the source holds several entries; their conditions need not be identical. Identical values can stand only once.

What was measured:
Format in all cases: in vivo
[1] = tested on: MPO activity in iris-ciliary body; assay: Myeloperoxidase (MPO) activity in iris-ciliary body, rabbit paracentesis model; conditions: for MPO Unit/g: iris-ciliary body samples collected after the second paracentesis, individual eye samples; for MPO activity in iris-ciliary body, Mean: after second paracentesis, group mean
Method: (§1) Each rabbit was placed in a restraint device and tagged with the alphanumeric code. The formulations were instilled (50 μl) into the conjunctival sac of both eyes 180, 120, 90 and 30 min before the first paracentesis; then 15, 30, 90 min after the first paracentesis. To perform the first paracentesis the animals were anaesthetized by intravenous injection of 5 mg/kg Zoletil® (Virbac; 2.5 mg/kg tiletamine HCl and 2.5 mg/kg zolazepam HCl) and one drop of local anesthetic (Novesina®, Novartis) was administered to the eye. Anterior chamber paracentesis was performed with a 26 G needle attached to a tuberculin syringe; the needle was introduced into the anterior chamber through the cornea, taking care not to damage the tissues. Two hours after the first paracentesis, the animals were sacrificed with 0.4 ml Tanax® (Intervet International B.V.) and the second paracentesis was performed. About 100 μl of aqueous humor were removed at the second paracentesis. Aqueous humor was immediately split in four aliquots and stored at −80° C. until analysis. Then both eyes were enucleated and the iris-ciliary body was carefully excised, placed in polypropylene tubes, and stored at −80° C. until analysis.
The activity of MPO was measured as previously described by Williams et al.[5] The iris-ciliary bodies were carefully dried, weighed and immersed in 1 ml of hexa-decyl-trimethyl-ammonium bromide solution. Then, the samples were sonicated for 10 sec on ice by a ultrasound homogenizer (HD 2070, Bandelin electronic), freeze-thawed three times, sonicated for 10 sec and centrifuged at 14,000 g for 10 min to remove cellular debris. An aliquot of the supernatant ([…] was diluted to 3 ml with the o-dianisidine 2HCl/H2O2 solution. The change in absorbance at 460 nm was continuously monitored for 5 min by a spectrophotometer (UV/Vis Spectrometer Lambda EZ 201; Perkin Elmer). The slope of the line (Δ/min) was determined for each sample and used to calculate the number of units of MPO in the tissue as follows:
were ε=11.3 mM^−1. Values were expressed as units of MPO/g of tissue.

[2] = tested on: protein concentration in the aqueous humor; assay: Protein measurement in aqueous humor, rabbit paracentesis model; conditions: for Protein level in aqueous humor, Mean / Protein level in aqueous humor: second paracentesis; for Protein level in aqueous humor, Mean: group mean; for Protein level in aqueous humor: individual eye
Method: as §1
For protein concentration determination in the aqueous humor we used the Protein Quantification Kit (Fluka; Cat. No. 77371; Lot. No. 1303129). Five microliters of aqueous humor were diluted to 100 μl with water. Twenty microliters of samples and of standards were load into a 96-well plate and recorded in a plate layout. Samples were treated following the assay procedure described in the kit. A microplate reader (GDV, Italy; model DV 990 B/V6) set at 670 nm was used for making the calibration and analyzing the samples.

[3] = tested on: rabbit paracentesis model; assay: Clinical evaluation (slit lamp clinical score), rabbit paracentesis model; parameters: key to Clinical Score −180 min / Clinical Score −5 min / Clinical Score +115 min: 0: normal; 1: discrete dilatation of iris and conjunctival vessels; 2: moderate dilatation of iris and conjunctival vessels; 3: intense iridal hyperemia with flare in the anterior chamber; 4: intense iridal hyperemia with flare in the anterior chamber and presence of fibrinous exudates; conditions: for Clinical Score −5 min: 5 min before first paracentesis; for Clinical Score −5 min / Clinical Score +115 min / Clinical Score −180 min: individual eye; for Clinical Score +115 min: 5 min before second paracentesis; for Clinical Score −180 min: basal
[4] = tested on: leukocytes (PMN) in aqueous humor; assay: Leukocytes (PMN) measurement in aqueous humor, rabbit paracentesis model; conditions: second paracentesis; for PMN numbers in aqueous humor, Mean: group mean; for PMN numbers in aqueous humor: individual eye
Method: as §1
For the determination of the number of leukocytes we used a haemocytometer (Improved Neubauer Chamber; Bright-line, Hausser Scientific) and a Polyvar 2 microscope (Reichert-Jung).

[5] = 0.1% topical formulation, listed as BOL
[6] = 0.5% topical formulation, listed as BOL
[7] = 1% topical formulation, listed as BOL
[8] = 0.1% topical formulation, +115 min
[9] = 0.1% topical formulation, −5 min
[10] = 0.1% topical formulation, −180 min (basal)
[11] = 0.5% topical formulation, +115 min

## Cc1ccc2c(NCC(O)(CC(C)(C)c3cc(F)cc4c3OCC4)C(F)(F)F)cccc2n1 (centres unmarked) [BOL-303242-X]
[1]; 0.1% BOL, listed as BOL
  MPO Unit/g: 1.04 Unit/g and 1.00 Unit/g and 1.14 Unit/g and 1.06 Unit/g and 1.22 Unit/g and 0.61 Unit/g and 1.05 Unit/g and 0.65 Unit/g
[1]; 0.1% topical formulation
  MPO activity in iris-ciliary body, Mean: 0.971 MPO Unit/g
[1]; 0.1%, 0.5%, 1% topical formulations, overall conclusion across biomarkers
  Activity in rabbit paracentesis model (preliminary conclusion): active in this model
[1]; 0.5% BOL, listed as BOL
  MPO Unit/g: 0.85 Unit/g and 0.93 Unit/g and 0.79 Unit/g and 1.03 Unit/g and 0.75 Unit/g and 0.74 Unit/g and 0.54 Unit/g and 0.58 Unit/g
[1]; 0.5% topical formulation
  MPO activity in iris-ciliary body, Mean: 0.775 MPO Unit/g
[1]; 1% BOL, listed as BOL
  MPO Unit/g: 0.66 Unit/g and 0.68 Unit/g and 0.49 Unit/g and 0.40 Unit/g and 0.34 Unit/g and 1.02 Unit/g and 0.31 Unit/g and 0.43 Unit/g
[1]; 1% topical formulation
  MPO activity in iris-ciliary body, Mean: 0.542 MPO Unit/g
[2]; 0.1% topical formulation
  Protein level in aqueous humor, Mean: 33.667 mg/mL
[2]; [5]
  Protein level in aqueous humor: 34.87 mg/mL and 34.41 mg/mL and 31.14 mg/mL and 22.82 mg/mL and 29.46 mg/mL and 31.69 mg/mL and 35.70 mg/mL and 49.25 mg/mL
[2]; 0.5% topical formulation
  Protein, p vs CTR: < 0.05
  Protein level in aqueous humor, Mean: 28.844 mg/mL
[2]; [6]
  Protein level in aqueous humor: 33.98 mg/mL and 33.65 mg/mL and 19.99 mg/mL and 27.11 mg/mL and 19.72 mg/mL and 36.35 mg/mL and 27.71 mg/mL and 32.24 mg/mL
[2]; 1% topical formulation
  Protein level in aqueous humor, Mean: 21.435 mg/mL
[2]; [7]
  Protein level in aqueous humor: 20.99 mg/mL and 21.48 mg/mL and 15.11 mg/mL and 20.28 mg/mL and 20.94 mg/mL and 21.89 mg/mL and 20.03 mg/mL and 30.76 mg/mL
[3]; 0.1% topical formulation
  Clinical Score −5 min: 0
  Clinical Score −180 min: 0
[3]; [5]
  Clinical Score +115 min: 2 (6×) and 3 (2×)
[3]; [8]
  Percentage of eyes with clinical score 2: 75%
  Percentage of eyes with clinical score 3: 25%
[3]; [9]
  Percentage of eyes with clinical score 0: 100%
[3]; [10]
  Percentage of eyes with clinical score 0: 100%
[3]; 0.5% topical formulation
  Clinical Score −5 min: 0
  Clinical Score −180 min: 0
[3]; [6]
  Clinical Score +115 min: 2 (5×) and 1 (3×)
[3]; [11]
  Percentage of eyes with clinical score 1: 37.5%
  Percentage of eyes with clinical score 2: 62.5%
[3]; 0.5% topical formulation, −5 min
  Percentage of eyes with clinical score 0: 100%
[3]; 0.5% topical formulation, −180 min (basal)
  Percentage of eyes with clinical score 0: 100%
[3]; 1% topical formulation
  Clinical Score −5 min: 0
  Clinical Score +115 min: 2
  Clinical Score −180 min: 0
[3]; 1% topical formulation, +115 min
  Percentage of eyes with clinical score 2: 100%
[3]; 1% topical formulation, −5 min
  Percentage of eyes with clinical score 0: 100%
[3]; 1% topical formulation, −180 min (basal)
  Percentage of eyes with clinical score 0: 100%
[4]; 0.1% topical formulation
  PMN numbers in aqueous humor, Mean: 28.333 number/μl
[4]; [5]
  PMN numbers in aqueous humor: 20 number/μl (4×) and 40 number/μl and 50 number/μl
[4]; 0.5% topical formulation
  PMN numbers in aqueous humor, Mean: 21.250 number/μl
[4]; [6]
  PMN numbers in aqueous humor: 40 number/μl (2×) and 20 number/μl (3×) and 10 number/μl (3×)
[4]; 1% topical formulation
  PMN numbers in aqueous humor, Mean: 28.750 number/μl
[4]; [7]
  PMN numbers in aqueous humor: 30 number/μl (3×) and 20 number/μl (3×) and 40 number/μl (2×)

## C[C@@H]1C[C@H]2[C@@H]3CCC4=CC(=O)C=C[C@]4(C)[C@@]3(F)[C@@H](O)C[C@]2(C)[C@@]1(O)C(=O)CO [Dex, dexamethasone, reference compound]
[1]; 0.1% Dex
  MPO Unit/g: 0.71 Unit/g and 0.60 Unit/g and 1.32 Unit/g and 0.48 Unit/g (2×) and 0.39 Unit/g and 0.45 Unit/g and 0.51 Unit/g
[1]; 0.1% topical formulation
  MPO activity in iris-ciliary body, Mean: 0.618 MPO Unit/g
[2]; 0.1% topical formulation
  Protein level in aqueous humor, Mean: 33.457 mg/mL
  Protein level in aqueous humor: 31.31 mg/mL and 31.81 mg/mL and 35.95 mg/mL and 37.15 mg/mL and 32.12 mg/mL and 32.40 mg/mL
[3]; 0.1% topical formulation
  Clinical Score −5 min: 0 (6×) and 1 (2×)
  Clinical Score +115 min: 1 (6×) and 3 (2×)
  Clinical Score −180 min: 0
[3]; [8]
  Percentage of eyes with clinical score 1: 75%
  Percentage of eyes with clinical score 3: 25%
[3]; [9]
  Percentage of eyes with clinical score 0: 75%
  Percentage of eyes with clinical score 1: 25%
[3]; [10]
  Percentage of eyes with clinical score 0: 100%
[4]; 0.1% topical formulation
  PMN numbers in aqueous humor: 20 number/μl (3×) and 50 number/μl and 40 number/μl and 30 number/μl
